Results: ChEMBL document CHEMBL3639236, “Nitrogen containing morphinan derivatives and the use thereof” (2015)

Tests used:
[1] = target: Kappa-type opioid receptor (Homo sapiens, UniProt P41145); assay: (§1) Radioligand Dose-Displacement Binding Assay: Radioligand dose-displacement binding assays for u-opioid receptors used 0.3 nM [3H]-diprenorphine (Perkin Elmer, Shelton, Conn.), with […] in a final volume of 500 ul binding buffer (10 mM MgCl2, 1 mM EDTA, 5% DMSO, 50 mM HEPES, pH 7.4). Reactions were carried out in the absence or presence of increasing concentrations of unlabeled naloxone. All reactions were conducted in 96-deep well polypropylene plates for 2 hours at room temperature. Binding reactions were terminated by rapid filtration onto 96-well Unifilter GF/C filter plates (Perkin Elmer, Shelton, Conn.), presoaked in 0.5% polyethylenimine using a 96-well tissue harvester (Perkin Elmer, Shelton, Conn.) followed by performing three filtration washes with 500 ul of ice-cold binding buffer. Filter plates were subsequently dried at 50 C. for 2-3 hours. BetaScint scintillation cocktail (Perkin Elmer, Shelton, Conn.) was added (50 ul/well), and plates were counted using a Packard Top-Counter.
Mu-type opioid receptor = Mu-type opioid receptor (Homo sapiens, UniProt P35372); assay: as §1
Mu-type opioid receptor, sequence (P35372 whole entry): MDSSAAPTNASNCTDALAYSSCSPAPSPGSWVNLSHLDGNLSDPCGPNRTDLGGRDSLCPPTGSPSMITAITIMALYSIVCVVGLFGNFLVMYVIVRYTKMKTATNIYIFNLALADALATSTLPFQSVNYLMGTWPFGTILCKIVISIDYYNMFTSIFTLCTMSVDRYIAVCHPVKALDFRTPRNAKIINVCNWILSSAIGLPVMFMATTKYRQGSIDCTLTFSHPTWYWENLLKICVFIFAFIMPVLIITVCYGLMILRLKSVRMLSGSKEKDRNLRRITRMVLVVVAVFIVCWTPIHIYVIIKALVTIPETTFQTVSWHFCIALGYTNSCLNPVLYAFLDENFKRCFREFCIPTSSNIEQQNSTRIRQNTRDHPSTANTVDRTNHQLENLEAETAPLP

Kappa-type opioid receptor, sequence (P41145 whole entry): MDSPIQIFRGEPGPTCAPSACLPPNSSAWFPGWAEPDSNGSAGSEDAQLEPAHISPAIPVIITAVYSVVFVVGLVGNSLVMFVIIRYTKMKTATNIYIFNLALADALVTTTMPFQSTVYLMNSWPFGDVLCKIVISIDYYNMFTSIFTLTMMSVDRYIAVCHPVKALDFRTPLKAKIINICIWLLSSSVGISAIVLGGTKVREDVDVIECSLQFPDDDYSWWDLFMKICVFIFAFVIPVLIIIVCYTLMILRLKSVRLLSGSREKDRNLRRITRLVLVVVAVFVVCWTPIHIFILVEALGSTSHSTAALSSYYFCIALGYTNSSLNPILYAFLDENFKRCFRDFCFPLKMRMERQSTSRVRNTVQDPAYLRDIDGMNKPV

Structure (SMILES)	Ki [1] [nM]	Ki (Mu-type opioid receptor) [nM]
COc1ccc(CN2C[C@H]3[C@H]4Cc5ccc(OC)cc5[C@@]3(CCN4CC3CC3)CC2=O)cc1	411	–
COc1ccc(CN2C=C3[C@H]4Cc5ccc(OC)cc5[C@@]3(CCN4CC3CC3)CC2=O)cc1	13.1	218
